In US20240335544A1, “M6PR CELL SURFACE RECEPTOR BINDING COMPOUNDS AND CONJUGATES” (LYCIA THERAPEUTICS, INC., priority 2021, published 2024):

Key:
[1] = test system: Jurkat cells; test: Uptake of IgE-Alexa488 target by omalizumab conjugates in Jurkat cells; assay type: cell-based
Method: The omalizumab conjugates of Example 142 were bound to IgE-Alexa488 (prepared according to Example 144), as follows: equal molar ratios of omalizumab (anti-IgE) conjugate and IgE-Alexa488 were added in tissue culture media for 30 minutes at room temperature. The resulting anti-IgE conjugate:IgE antibody-Alexa488 compositions were added to Jurkat cells (100 k cells/50 ul per well, n=2), and Alexa488 fluorescence levels in the cells were measured at 1 hour by flow cytometry. As the fluorescently labelled target (IgE antibody) accumulates in cells, the fluorescence presents a way to measure total intracellular uptake by cells over time.

[2] = biological target: CI-M6PR (Homo sapiens, UniProt P11717); test: CI-M6PR SPR binding assay; settings: omalizumab conjugates at DAR of about 4
Sequence of CI-M6PR (P11717 41-2491): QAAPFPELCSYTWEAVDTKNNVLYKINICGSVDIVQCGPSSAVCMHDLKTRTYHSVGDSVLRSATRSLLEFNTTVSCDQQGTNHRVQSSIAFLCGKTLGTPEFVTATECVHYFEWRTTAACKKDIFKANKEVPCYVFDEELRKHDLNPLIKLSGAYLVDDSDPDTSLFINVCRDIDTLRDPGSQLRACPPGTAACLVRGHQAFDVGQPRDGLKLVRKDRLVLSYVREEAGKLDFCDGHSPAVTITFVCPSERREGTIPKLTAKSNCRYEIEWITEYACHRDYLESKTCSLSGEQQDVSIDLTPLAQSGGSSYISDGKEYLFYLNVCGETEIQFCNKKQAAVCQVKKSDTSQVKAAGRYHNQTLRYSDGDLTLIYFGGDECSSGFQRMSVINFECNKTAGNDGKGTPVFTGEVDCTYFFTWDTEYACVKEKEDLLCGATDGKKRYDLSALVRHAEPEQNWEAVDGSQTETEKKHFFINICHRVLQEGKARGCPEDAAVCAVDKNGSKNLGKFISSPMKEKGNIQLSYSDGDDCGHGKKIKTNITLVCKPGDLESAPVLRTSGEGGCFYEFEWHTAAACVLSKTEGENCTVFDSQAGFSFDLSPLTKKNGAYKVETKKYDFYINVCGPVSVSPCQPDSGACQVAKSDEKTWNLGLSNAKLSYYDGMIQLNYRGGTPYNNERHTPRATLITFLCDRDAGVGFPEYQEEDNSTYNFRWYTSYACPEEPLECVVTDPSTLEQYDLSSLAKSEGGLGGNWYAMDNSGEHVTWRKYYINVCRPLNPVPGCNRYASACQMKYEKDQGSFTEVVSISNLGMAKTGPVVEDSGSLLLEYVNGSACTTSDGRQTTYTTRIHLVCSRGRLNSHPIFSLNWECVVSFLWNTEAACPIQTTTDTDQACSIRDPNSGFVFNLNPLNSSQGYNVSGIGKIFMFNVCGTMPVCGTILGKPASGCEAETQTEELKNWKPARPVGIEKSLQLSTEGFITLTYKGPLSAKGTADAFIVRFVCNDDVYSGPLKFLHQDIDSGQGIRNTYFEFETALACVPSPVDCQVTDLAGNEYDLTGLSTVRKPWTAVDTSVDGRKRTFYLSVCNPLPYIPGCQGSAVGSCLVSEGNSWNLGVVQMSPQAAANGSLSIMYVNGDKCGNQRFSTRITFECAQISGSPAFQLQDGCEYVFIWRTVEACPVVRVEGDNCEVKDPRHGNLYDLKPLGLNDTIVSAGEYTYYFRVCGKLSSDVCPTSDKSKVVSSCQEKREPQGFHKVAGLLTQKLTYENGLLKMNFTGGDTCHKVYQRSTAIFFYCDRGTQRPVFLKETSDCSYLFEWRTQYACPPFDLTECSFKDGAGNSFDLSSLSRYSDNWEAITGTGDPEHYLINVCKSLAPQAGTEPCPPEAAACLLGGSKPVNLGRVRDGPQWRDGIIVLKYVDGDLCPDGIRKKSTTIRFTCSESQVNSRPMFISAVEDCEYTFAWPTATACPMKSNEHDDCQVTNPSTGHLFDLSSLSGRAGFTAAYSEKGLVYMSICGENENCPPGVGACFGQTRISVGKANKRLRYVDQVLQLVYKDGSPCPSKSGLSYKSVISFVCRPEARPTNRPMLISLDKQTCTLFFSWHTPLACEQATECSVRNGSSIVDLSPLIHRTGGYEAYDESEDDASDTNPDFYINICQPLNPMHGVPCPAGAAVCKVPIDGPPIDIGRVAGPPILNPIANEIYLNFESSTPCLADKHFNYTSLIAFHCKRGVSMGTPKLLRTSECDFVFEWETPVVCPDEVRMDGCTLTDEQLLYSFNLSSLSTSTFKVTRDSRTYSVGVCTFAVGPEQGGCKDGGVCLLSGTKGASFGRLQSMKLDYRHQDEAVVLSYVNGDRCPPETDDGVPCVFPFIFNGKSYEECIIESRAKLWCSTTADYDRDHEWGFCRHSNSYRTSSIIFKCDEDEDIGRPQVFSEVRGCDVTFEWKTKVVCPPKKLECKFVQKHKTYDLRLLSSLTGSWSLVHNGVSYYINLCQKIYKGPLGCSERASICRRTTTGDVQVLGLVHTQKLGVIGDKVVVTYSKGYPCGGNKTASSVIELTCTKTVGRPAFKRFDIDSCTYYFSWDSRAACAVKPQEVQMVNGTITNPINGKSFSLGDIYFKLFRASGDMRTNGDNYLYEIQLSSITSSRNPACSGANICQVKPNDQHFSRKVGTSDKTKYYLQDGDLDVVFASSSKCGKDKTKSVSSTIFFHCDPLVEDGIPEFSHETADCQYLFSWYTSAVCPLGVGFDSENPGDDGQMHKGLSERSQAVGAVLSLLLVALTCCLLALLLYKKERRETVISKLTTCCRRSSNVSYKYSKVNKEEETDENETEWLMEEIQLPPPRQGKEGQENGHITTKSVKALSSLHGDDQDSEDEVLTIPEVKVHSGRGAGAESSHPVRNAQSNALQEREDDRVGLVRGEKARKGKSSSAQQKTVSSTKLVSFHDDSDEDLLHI
Method: The CI-M6PR binding affinities of omalizumab (anti-IgE) conjugates of Table 19 were also assessed via SPR binding assay. […] At equivalent DAR (m) values, the koff rate of the omalizumab (anti-IgE) conjugates was 552>529>570.

Q: O=C(NCCCCc1cn(CCOCCOCCOCCOCCC(=O)Oc2c(F)c(F)c(F)c(F)c2F)nn1)Nc1ccc(S[C@@H]2O[C@H](CCP(=O)(O)O)[C@@H](O)[C@H](O)[C@@H]2O)cc1 [Compound 570] was tested. Which “relative cellular uptake activity of IgE-Alexa488, omalizumab conjugates of Table 15B” value ([1]; 1 hour, FIGS. 18-21) did it give?
A: superior activity to conjugates having a α-S-glycoside configuration (552), and to a conjugate having an α-O-glycoside configuration (520 (I-7), m=8)

Q: What about the “relative cellular uptake activity of IgE-Alexa488, omalizumab conjugates of Table 19” value ([1]; FIG. 23, entire dose response range) of the same molecule?
A: superior activity to the corresponding conjugates of α-O-glycoside (529) and α-S-glycoside (552)

Q: What about the “Kd (CI-M6PR binding affinity by SPR), relative” value [2] of the same molecule?
A: superior Kd relative to corresponding α-O (529) and α-S-glycosides (552)
